Measurements reported in patent US20030206932A1, “Novel topical compositions” (priority 1994, published 2003).

Test: Solubility parameter δ estimated from tabulated molecular substituent constants (Fedors)
Conditions: difference to the solubility parameter of retinol
Source text: Solubility attributes of two or more materials with respect to each other are generally reflected in the “solubility parameter”, δ, which is expressed in the units (cal/cm^3)^1/2.
The value of the solubility parameter can be estimated from tabulated molecular substituent constants such as those described by Fedors. These substituent constants can be found in Solubility and Related Properties by Kenneth C. […] Generally, according to Textbook of Polymer Science, 2nd Ed., Billmeyer, solubility can be expected if the difference of the solubility parameters of two materials is less than about 2 units.

CC1CC(OC(=O)c2ccccc2O)CC(C)(C)C1 (stereo not drawn) [Homomenthyl Salicylate]
δN − δRETINOL: 1.14 (cal/cm^3)^1/2

CC1CCC(C(C)C)C(OC(=O)c2ccccc2N)C1 (stereo not drawn) [Menthyl Anthranilate]
δN − δRETINOL: 0.13 (cal/cm^3)^1/2

CCCCC(CC)COC(=O)C(C#N)=C(c1ccccc1)c1ccccc1 (stereo not drawn) [Octocrylene]
δN − δRETINOL: 0.74 (cal/cm^3)^1/2

CCCCC(CC)COC(=O)c1ccc(N(C)C)cc1 (stereo not drawn) [Octyl Dimethyl PABA]
δN − δRETINOL: −0.33 (cal/cm^3)^1/2

CCCCC(CC)COC(=O)C=Cc1ccc(OC)cc1 (stereo not drawn) [Octyl Methoxy Cinnamate]
δN − δRETINOL: −0.29 (cal/cm^3)^1/2

DEA Methoxysalicylate
δN − δRETINOL: 2.94 (cal/cm^3)^1/2
